Experimental data published in patent US9497970B2, “Pesticide compounds” (priority 2013, dated 2016).

Legend:
Format in all cases: in vivo
[1] = test system: Diamond Back Moth (Plutella xylostella); assay: B.1 Diamond Back Moth (Plutella xylostella), cabbage leaf dip; conditions: foliar, 500 ppm, 3rd instar larvae on dipped cabbage leaves, 72 hours after treatment, in comparison with untreated controls, read-out: mortality
Procedure, shortened: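 Cabbage leaves dipped in compound in 1:1 water:acetone with 0.01% Kinetic HV surfactant, air-dried, then infested with ten 3rd-instar larvae on moist filter paper. Mortality scored at 72 h after treatment; feeding damage rated on a 0-100% scale.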

[2] = test system: Silverleaf Whitefly (Bemisia argentifoli); assay: B.5 Silverleaf Whitefly (Bemisia argentifoli), sprayed cotton plants; conditions: 72 h, whitefly adults on sprayed cotton plants, 3 days after treatment, in comparison with untreated controls
Protocol: B.5 Silverleaf Whitefly (Bemisia argentifoli)
The active compounds were formulated by a Tecan liquid handler in 100% cyclohexanone as a 10,000 ppm solution supplied in tubes. The 10,000 ppm solution was serially diluted in 100% cyclohexanone to make interim solutions. These served as stock solutions for which final dilutions were made by the Tecan in 50% acetone:50% water (v/v) into 5 or 10 ml glass vials. A nonionic surfactant (Kinetic®) was included in the solution at a volume of 0.01% (v/v). The vials were then inserted into an automated electrostatic sprayer equipped with an atomizing nozzle for application to plants/insects.
Cotton plants at the cotyledon stage (one plant per pot) were sprayed by an automated electrostatic plant sprayer equipped with an atomizing spray nozzle. The plants were dried in the sprayer fume hood and then removed from the sprayer. Each pot was placed into a plastic cup and about 10 to 12 whitefly adults (approximately 3-5 days old) were introduced. The insects were collected using an aspirator and a nontoxic Tygon® tubing connected to a barrier pipette tip. The tip, containing the collected insects, was then gently inserted into the soil containing the treated plant, allowing insects to crawl out of the tip to reach the foliage for feeding. Cups were covered with a reusable screened lid. Test plants were maintained in a growth room at about 25° C. and about 20-40% relative humidity for 3 days, avoiding direct exposure to fluorescent light (24 hour photoperiod) to prevent trapping of heat inside the cup. Mortality was assessed 3 days after treatment, compared to untreated control plants.

[3] = test system: Yellow Fever Mosquito (Aedes aegypti); assay: whole plant or invertebrate; conditions: 48 h, freshly hatched larvae in tap water, 2 days, in comparison with untreated controls, read-out: mortality (larval)
Procedure, shortened: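 Freshly hatched A. aegypti larvae, 5–15 per well, were held in 200 μl tap water. Compounds formulated in 75:25 water:DMSO were sprayed at various concentrations, 2.5 μl per well by micro-atomizer, in two replicates.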

[4] = test system: Orchid thrips (dichromothrips corbetti); assay: B.12 Orchid thrips (dichromothrips corbetti), floral-immersion technique; conditions: adult thrips on dipped orchid petals, 72 hours after treatment, in comparison with untreated controls
Procedure, shortened: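 Whole orchid flower petals were dipped in compound in 1:1 acetone:water with 0.01% v/v Kinetic HV, dried, and enclosed with about 20 adult thrips. They were held under continuous light at about 28° C. Live thrips were counted and percent mortality recorded at 72 hours.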

[5] = test system: Southern Armyworm (Spodoptera eridania), 2nd Instar Larvae; assay: B.10 Southern Armyworm (Spodoptera eridania), 2nd Instar Larvae, sprayed lima bean plants; conditions: 96 h, 300 ppm, larvae on sprayed lima bean plants, 4 days after treatment, in comparison with untreated controls, read-out: mortality
Procedure, shortened: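 Lima bean plants at 1st true leaf stage sprayed electrostatically with compound in 50% acetone:50% water plus 0.01% nonionic surfactant, then infested with about 10 to 11 2nd instar larvae. Mortality and reduced feeding assessed 4 days after treatment at about 25° C versus untreated plants.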

[6] = test system: Mediterranean Fruitfly (Ceratitis capitata); assay: B.6 Mediterranean Fruitfly (Ceratitis capitata), microtiter plate insect diet; conditions: 120 h, 800 ppm, sprayed onto insect diet, 5 days, in comparison with untreated controls, read-out: mortality (egg and larval)
Procedure, shortened: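 Insect diet with 50-80 C. capitata eggs sprayed with compounds formulated in 75% water/25% DMSO, at different concentrations, two replications. Incubation at about 28±1° C and 80±5% relative humidity for 5 days, then egg and larval mortality assessed visually.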

[7] = test system: Tobacco Budworm (Heliothis virescens); assay: B.7 Tobacco Budworm (Heliothis virescens) I, microtiter plate insect diet; conditions: 120 h, 800 ppm, sprayed onto insect diet, 5 days, in comparison with untreated controls, read-out: mortality (egg and larval)
Procedure, shortened: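 96-well plates with insect diet and 15-25 H. virescens eggs; compounds in 75% water/25% DMSO sprayed onto diet at several concentrations, two replicates. Plates held at about 28±1° C. and 80±5% relative humidity for 5 days, then egg and larval mortality scored visually.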

[8] = test system: Boll Weevil (Anthonomus grandis); assay: B.3 Boll Weevil (Anthonomus grandis), microtiter plate insect diet; conditions: 120 h, 800 ppm, sprayed onto insect diet, 5 days, in comparison with untreated controls, read-out: mortality (egg and larval)
Procedure, shortened: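 Compounds in 25% DMSO/water sprayed at several concentrations onto insect diet in microtiter wells holding 5–10 A. grandis eggs, two replicates. Plates kept 5 days at about 25±1 °C and 75±5% RH. Egg and larval mortality scored visually.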

[9] = test system: Green Peach Aphid (Myzus persicae); assay: B.9 Green Peach Aphid (Myzus persicae), sprayed bell pepper plants; conditions: 120 h, infested bell pepper plants sprayed, after 5 days, in comparison with untreated controls
Protocol: B.9 Green Peach Aphid (Myzus persicae)
The active compounds were formulated by a Tecan liquid handler in 100% cyclohexa none as a 10,000 ppm solution supplied in tubes. The 10,000 ppm solution was serially diluted in 100% cyclohexanone to make interim solutions. These served as stock solutions for which final dilutions were made by the Tecan in 50% acetone:50% water (v/v) into 5 or 10 ml glass vials. A nonionic surfactant (Kinetic®) was included in the solution at a volume of 0.01% (v/v). The vials were then inserted into an automated electrostatic sprayer equipped with an atomizing nozzle for application to plants/insects.
Bell pepper plants at the first true-leaf stage were infested prior to treatment by placing heavily infested leaves from the main colony on top of the treatment plants. Aphids were allowed to transfer overnight to accomplish an infestation of 30-50 aphids per plant and the host leaves were removed. The infested plants were then sprayed by an automated electrostatic plant sprayer equipped with an atomizing spray nozzle. The plants were dried in the sprayer fume hood, removed, and then maintained in a growth room under fluorescent lighting in a 24-hr photoperiod at about 25° C. and about 20-40% relative humidity. Aphid mortality on the treated plants, relative to mortality on untreated control plants, was determined after 5 days.

CC(C)c1ccccc1N1CCCSC1=NN=Cc1ccc2c(ccc3c2ncn3-c2ccc(OC(F)(F)F)cc2)c1 (stereo in doubt) [C-55, (Z)-3-(2-isopropylphenyl)-2-((E)-((3-(4-(trifluoromethoxy)phenyl)-3H-naphtho[1,2-d]imidazol-7-yl)methylene)hydrazono)-1,3-thiazinane]
≥ 75%: mortality at 500 ppm [1] | mortality at 300 ppm [2] | mortality at 800 ppm [3] | mortality at 500 ppm [4] | mortality at 300 ppm [5] | mortality at 800 ppm [6] | mortality at 800 ppm [7] | mortality at 800 ppm [8]

CC(C)c1ccccc1N1C(=O)CS/C1=N\N=C\c1ccc2c(ccc3c2ncn3-c2ccc(OC(F)(F)F)cc2)c1 [C-51]
≥ 75%: mortality at 500 ppm [1] | mortality at 300 ppm [2] | mortality at 800 ppm [9] | mortality at 800 ppm [3] | mortality at 500 ppm [4] | mortality at 300 ppm [5] | mortality at 800 ppm [6] | mortality at 800 ppm [7] | mortality at 800 ppm [8]

CS/C(=N\N=C\c1ccc2c(ccc3c2ncn3-c2ccc(OC(F)(F)F)cc2)c1)Nc1ccccc1C(C)C [C-52, (1Z,N′E)-methyl N-2-isopropylphenyl-N′-((3-(4-(trifluoromethoxy)phenyl)-3H-naphtho[1,2-d]imidazol-7-yl)methylene)carbamohydrazonothioate]
≥ 75%: mortality at 500 ppm [1] | mortality at 300 ppm [2] | mortality at 800 ppm [9] | mortality at 500 ppm [4] | mortality at 300 ppm [5] | mortality at 800 ppm [6] | mortality at 800 ppm [7] | mortality at 800 ppm [8]

CCc1cccc(CC)c1NC(=S)N/N=C/c1ccc2c(ccc3c2ncn3-c2ccc(OC(F)(F)F)cc2)c1 [C-70, 1-(2,6-diethylphenyl)-3-[(E)-[3-[4-(trifluoromethoxy)phenyl]benzo[e]benzimidazol-7-yl]methyleneamino] thiourea]
≥ 75%: mortality at 500 ppm [1] | mortality at 300 ppm [2] | mortality at 800 ppm [9] | mortality at 800 ppm [3] | mortality at 500 ppm [4] | mortality at 300 ppm [5] | mortality at 800 ppm [7] | mortality at 800 ppm [8]

Cc1cccc(C)c1NC(=S)N/N=C/c1ccc2c(ccc3c2ncn3-c2ccc(SC(F)(F)F)cc2)c1 [C-75, 1-(2,6-dimethylphenyl)-3-[(E)-[3-[4-(trifluoromethylsulfanyl)phenyl]benzo[e]benzimidazol-7-yl]methyleneamino] thiourea]
≥ 75%: mortality at 500 ppm [1] | mortality at 300 ppm [2] | mortality at 800 ppm [9] | mortality at 800 ppm [3] | mortality at 500 ppm [4] | mortality at 300 ppm [5] | mortality at 800 ppm [6] | mortality at 800 ppm [7] | mortality at 800 ppm [8]

CCc1cccc(C)c1NC(=S)N/N=C/c1ccc2c(ccc3c2ncn3-c2ccc(SC(F)(F)F)cc2)c1 [C-76, 1-(2-ethyl-6-methyl-phenyl)-3-[(E)-[3-[4-(trifluoromethylsulfanyl)phenyl]benzo[e]benzimidazol-7-yl]methyleneamino]thiourea]
≥ 75%: mortality at 500 ppm [1] | mortality at 300 ppm [2] | mortality at 800 ppm [9] | mortality at 800 ppm [3] | mortality at 500 ppm [4] | mortality at 300 ppm [5] | mortality at 800 ppm [6] | mortality at 800 ppm [7] | mortality at 800 ppm [8]

Cc1cccc(Cl)c1NC(=S)N/N=C/c1ccc2c(ccc3c2ncn3-c2ccc(C(F)(F)F)cc2)c1 [C-77, 1-(2-chloro-6-methyl-phenyl)-3-[(E)-[3-[4-(trifluoromethyl)phenyl]benzo[e]benzimidazol-7-yl]methyleneamino] thiourea]
≥ 75%: mortality at 500 ppm [1] | mortality at 300 ppm [2] | mortality at 800 ppm [9] | mortality at 800 ppm [3] | mortality at 500 ppm [4] | mortality at 300 ppm [5] | mortality at 800 ppm [6] | mortality at 800 ppm [7] | mortality at 800 ppm [8]

CSc1cccc(C)c1NC(=S)N/N=C/c1ccc2c(ccc3c2ncn3-c2ccc(OC(F)(F)F)cc2)c1 [C-103, 1-(2-methyl-6-methylsulfanyl-phenyl)-3-[(E)-[3-[4-(trifluoromethoxy)phenyl]benzo[e]benzimidazol-7-yl]methyleneamino]thiourea]
≥ 75%: mortality at 500 ppm [1] | mortality at 300 ppm [2] | mortality at 800 ppm [3] | mortality at 500 ppm [4] | mortality at 300 ppm [5] | mortality at 800 ppm [6] | mortality at 800 ppm [7] | mortality at 800 ppm [8]

Cc1cccc(C)c1NC(=S)N/N=C/c1ccc2c(ccc3c2ncn3-c2ccc(C(F)(F)F)cn2)c1 [C-109, 1-(2,6-dimethylphenyl)-3-[(E)-[3-[5-(trifluoromethyl)-2-pyridyl]benzo[e]benzimidazol-7-yl]methyleneamino] thiourea]
≥ 75%: mortality at 500 ppm [1] | mortality at 300 ppm [2] | mortality at 800 ppm [9] | mortality at 800 ppm [3] | mortality at 800 ppm [6] | mortality at 800 ppm [7] | mortality at 800 ppm [8]
